Where two headings read alike, the source gives them in different places.

Common to all, as to assay type: biochemical
Assay [1] has as its target wild-type un-phosphorylated FGFR3 protein (Homo sapiens (Human), UniProt P22607). In words: FGFR Enzymatic Assay (FRET peptide phosphorylation), FGFR3. Particulars: pre-incubated for 4 hours.
A further assay addresses FGFR1 (Homo sapiens (Human), UniProt P11362). In words: FGFR Enzymatic Assay (FRET peptide phosphorylation), FGFR1. Particulars: pre-incubated for 4 hours.
Another assay addresses FGFR2 (Homo sapiens (Human), UniProt P21802). Kind of assay: FGFR Enzymatic Assay (FRET peptide phosphorylation), FGFR2.

Sequence of FGFR1 (P11362 22-822): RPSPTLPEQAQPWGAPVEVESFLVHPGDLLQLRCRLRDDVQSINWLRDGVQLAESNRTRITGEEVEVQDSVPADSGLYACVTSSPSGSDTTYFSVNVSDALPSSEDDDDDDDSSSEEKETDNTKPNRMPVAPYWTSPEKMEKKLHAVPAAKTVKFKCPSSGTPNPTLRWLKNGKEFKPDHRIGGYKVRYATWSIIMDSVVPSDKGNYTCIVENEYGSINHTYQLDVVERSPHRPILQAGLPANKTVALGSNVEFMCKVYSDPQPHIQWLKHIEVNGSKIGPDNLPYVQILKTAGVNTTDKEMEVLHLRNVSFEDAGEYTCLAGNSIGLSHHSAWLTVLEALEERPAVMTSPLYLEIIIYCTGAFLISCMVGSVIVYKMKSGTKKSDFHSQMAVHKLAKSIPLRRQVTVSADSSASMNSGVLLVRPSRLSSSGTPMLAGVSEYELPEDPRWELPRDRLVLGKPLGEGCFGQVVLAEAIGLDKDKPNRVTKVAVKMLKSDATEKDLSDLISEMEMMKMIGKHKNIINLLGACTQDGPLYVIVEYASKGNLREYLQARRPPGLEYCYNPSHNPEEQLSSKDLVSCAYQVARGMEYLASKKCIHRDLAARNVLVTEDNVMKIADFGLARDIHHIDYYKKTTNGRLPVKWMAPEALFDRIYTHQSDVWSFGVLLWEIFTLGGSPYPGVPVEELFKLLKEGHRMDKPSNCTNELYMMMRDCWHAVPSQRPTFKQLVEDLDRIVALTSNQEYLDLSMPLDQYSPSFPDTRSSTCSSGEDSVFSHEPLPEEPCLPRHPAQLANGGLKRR
Sequence of FGFR2 (P21802 22-821): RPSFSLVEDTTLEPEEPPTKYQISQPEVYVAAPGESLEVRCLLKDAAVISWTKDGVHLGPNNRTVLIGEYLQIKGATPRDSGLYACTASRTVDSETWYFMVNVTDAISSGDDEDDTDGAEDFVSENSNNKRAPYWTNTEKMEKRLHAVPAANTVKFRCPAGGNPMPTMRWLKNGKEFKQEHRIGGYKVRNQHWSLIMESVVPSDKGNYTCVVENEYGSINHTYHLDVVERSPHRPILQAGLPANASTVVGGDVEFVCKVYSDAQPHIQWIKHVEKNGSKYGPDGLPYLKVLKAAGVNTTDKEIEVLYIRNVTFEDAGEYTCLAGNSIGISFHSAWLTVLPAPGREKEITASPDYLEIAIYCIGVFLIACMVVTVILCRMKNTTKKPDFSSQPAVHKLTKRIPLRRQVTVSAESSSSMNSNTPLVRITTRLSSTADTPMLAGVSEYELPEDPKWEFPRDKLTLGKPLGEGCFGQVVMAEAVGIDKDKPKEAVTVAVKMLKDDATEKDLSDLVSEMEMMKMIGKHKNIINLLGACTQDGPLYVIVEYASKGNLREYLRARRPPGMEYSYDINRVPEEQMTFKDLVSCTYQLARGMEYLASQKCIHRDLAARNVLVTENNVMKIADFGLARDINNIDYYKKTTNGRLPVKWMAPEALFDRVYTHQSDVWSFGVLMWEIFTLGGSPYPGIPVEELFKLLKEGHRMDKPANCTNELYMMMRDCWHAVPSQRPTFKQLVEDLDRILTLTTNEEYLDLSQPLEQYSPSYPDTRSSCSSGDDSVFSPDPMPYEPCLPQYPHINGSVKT
Sequence of wild-type un-phosphorylated FGFR3 protein (P22607 23-806): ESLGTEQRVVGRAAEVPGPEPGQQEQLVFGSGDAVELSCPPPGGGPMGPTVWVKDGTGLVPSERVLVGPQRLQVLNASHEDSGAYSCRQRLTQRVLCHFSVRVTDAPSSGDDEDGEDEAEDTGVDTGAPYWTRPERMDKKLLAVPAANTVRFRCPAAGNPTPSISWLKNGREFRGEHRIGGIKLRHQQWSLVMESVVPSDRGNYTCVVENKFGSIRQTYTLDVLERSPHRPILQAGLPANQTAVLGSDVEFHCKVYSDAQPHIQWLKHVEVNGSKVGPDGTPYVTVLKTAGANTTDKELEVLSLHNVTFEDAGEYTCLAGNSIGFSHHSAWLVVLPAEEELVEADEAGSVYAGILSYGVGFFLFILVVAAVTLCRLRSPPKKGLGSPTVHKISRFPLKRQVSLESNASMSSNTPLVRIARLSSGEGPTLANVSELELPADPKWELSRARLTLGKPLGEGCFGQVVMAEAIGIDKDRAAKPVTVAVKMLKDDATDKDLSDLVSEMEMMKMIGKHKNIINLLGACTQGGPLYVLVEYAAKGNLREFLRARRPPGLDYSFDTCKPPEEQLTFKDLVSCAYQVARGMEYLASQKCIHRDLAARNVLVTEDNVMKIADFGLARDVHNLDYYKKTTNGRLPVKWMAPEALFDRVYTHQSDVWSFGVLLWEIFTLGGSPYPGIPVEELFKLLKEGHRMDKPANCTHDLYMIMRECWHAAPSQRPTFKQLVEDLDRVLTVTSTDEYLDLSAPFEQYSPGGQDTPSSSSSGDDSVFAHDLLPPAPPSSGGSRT

As for `CNC(=O)c1cc(-c2cnn3cc(-c4ccc(C(C)(C)O)nc4)c(O[C@H]4CCOC4)nc23)c(F)c(C(F)F)c1` [Example 25, (S)-3-(Difluoromethyl)-4-fluoro-5-(6-(6-(2-hydroxypropan-2-yl)pyridin-3-yl)-5-((tetrahydrofuran-3-yl)oxy)pyrazolo[1,5-a]pyrimidin-3-yl)-N-methylbenzamide], the IC50 in assay [1] is under 10 nM; against FGFR1 it was 30 to 200 nM; against FGFR2 (pre-incubated for 4 hours), under 10 nM.
Take `CNC(=O)c1cc(-c2cnn3cc(-c4cnn(C5CN(C)C5)c4)c(O[C@H]4CCOC4)nc23)c(F)c(C(F)F)c1` [Example 26, (S)-3-(Difluoromethyl)-4-fluoro-N-methyl-5-(6-(1-(1-methylazetidin-3-yl)-1H-pyrazol-4-yl)-5-((tetrahydrofuran-3-yl)oxy)pyrazolo[1,5-a]pyrimidin-3-yl)benzamide]: the half-maximal inhibitory concentration (IC50) (in assay [1]; against FGFR1; on FGFR2 (pre-incubated for 4 hours)) was under 10 nM each time.
In the case of `CNC(=O)c1cc(C#N)cc(-c2cnn3cc(-c4ccc(C)nc4)c(O[C@H]4CCOC4)nc23)c1` [Example 28, (S)-3-Cyano-N-methyl-5-(6-(6-methylpyridin-3-yl)-5-((tetrahydrofuran-3-yl)oxy)pyrazolo[1,5-a]pyrimidin-3-yl)benzamide], the 50% inhibitory concentration (IC50) in assay [1] was under 10 nM; at FGFR1, at least 200 nM; against FGFR2 (pre-incubated for 4 hours), 10 to 30 nM.
For the compound `CNC(=O)c1cc(C#N)cc(-c2cnn3cc(-c4ccncc4)c(O[C@H]4CCOC4)nc23)c1` [Example 30, (S)-3-Cyano-N-methyl-5-(6-(pyridin-4-yl)-5-((tetrahydrofuran-3-yl)oxy)pyrazolo[1,5-a]pyrimidin-3-yl)benzamide], the concentration for half-maximal inhibition (IC50) in assay [1] is under 10 nM; on FGFR1, 30 to 200 nM; at FGFR2 (pre-incubated for 4 hours), 10 to 30 nM.
As to `CNC(=O)c1cc(O)c(F)c(-c2cnn3cc(-c4cnn(C)c4)c(O[C@H]4CCOC4)nc23)c1` [Example 31, (S)-4-Fluoro-3-hydroxy-N-methyl-5-(6-(1-methyl-1H-pyrazol-4-yl)-5-((tetrahydrofuran-3-yl)oxy)pyrazolo[1,5-a]pyrimidin-3-yl)benzamide], the results for the half-maximal inhibitory concentration (IC50) (in assay [1]; against FGFR1; at FGFR2 (pre-incubated for 4 hours)) were under 10 nM, 10 to 30 nM and under 10 nM, respectively.
With `CNC(=O)c1cc(-c2cnn3cc(-c4cnn(C5CCC5)c4)c(O[C@H]4CCOC4)nc23)cc(S(C)(=O)=O)c1` [Example 32, (S)-3-(6-(1-Cyclobutyl-1H-pyrazol-4-yl)-5-((tetrahydrofuran-3-yl)oxy)pyrazolo[1,5-a]pyrimidin-3-yl)-N-methyl-5-(methylsulfonyl)benzamide], the figures for the IC50 (in assay [1]; against FGFR1; on FGFR2 (pre-incubated for 4 hours)) were at least 200 nM, at least 200 nM and 30 to 200 nM, respectively.
In the case of `CNC(=O)c1cc(C)c(F)c(-c2cnn3cc(-c4cnn(CCO)c4)c(N[C@H]4CCOC4)nc23)c1` [Example 36, (S)-4-Fluoro-3-(6-(1-(2-hydroxyethyl)-1H-pyrazol-4-yl)-5-((tetrahydrofuran-3-yl)amino)pyrazolo[1,5-a]pyrimidin-3-yl)-N,5-dimethylbenzamide], the half-maximal inhibitory concentration (IC50) in assay [1] was under 10 nM; against FGFR1, 30 to 200 nM; on FGFR2 (pre-incubated for 4 hours), under 10 nM.
As to `CNC(=O)c1cc(C)c(F)c(-c2cnn3cc(-c4cnn(CCC#N)c4)c(N[C@H]4CCOC4)nc23)c1` [Example 37, (S)-3-(6-(1-(2-Cyanoethyl)-1H-pyrazol-4-y1)-5-((tetrahydrofuran-3-yl)amino)pyrazolo[1,5-a]pyrimidin-3-y1)-4-fluoro-N,5-dimethylbenzamide], the values for the IC50 (in assay [1]; against FGFR1; against FGFR2) were under 10 nM, 10 to 30 nM and under 10 nM, respectively.
`CNC(=O)c1cc(C)c(F)c(-c2cnn3cc(-c4cnn(C5CCS(=O)(=O)C5)c4)c(N[C@H]4CCOC4)nc23)c1` (stereo partly drawn) [Example 38, 3-(6-(1-(1,1-Dioxidotetrahydrothiophen-3-y1)-1H-pyrazol-4-y1)-5-(((S)-tetrahydrofuran-3-yl)amino)pyrazolo[1,5-a]pyrimidin-3-y1)-4-fluoro-N,5-dimethylbenzamide]: the IC50 in assay [1] was under 10 nM; against FGFR1, 30 to 200 nM; against FGFR2, under 10 nM.
`CNC(=O)c1cc(C)c(F)c(-c2cnn3cc(-c4cnn(CC(=O)N(C)C)c4)c(N[C@H]4CCOC4)nc23)c1` [Example 39, (S)-3-(6-(1-(2-(Dimethylamino)-2-oxoethyl)-1H-pyrazol-4-y1)-5-((tetrahydrofuran-3-yl)amino)pyrazolo[1,5-a]pyrimidin-3-y1)-4-fluoro-N,5-dimethylbenzamide]: the 50% inhibitory concentration (IC50) is under 10 nM in assay [1], 10 to 30 nM at FGFR1 and under 10 nM against FGFR2.
As to `CNC(=O)c1cc(-c2cnn3cc(-c4cnn(C)c4)c(N[C@H]4CCOC4)nc23)c(F)c(C(F)F)c1` [Example 47, (S)-3-(Difluoromethyl)-4-fluoro-N-methyl-5-(6-(1-methyl-1H-pyrazol-4-yl)-5-((tetrahydrofuran-3-yl)amino)pyrazolo[1,5-a]pyrimidin-3-yl)benzamide], the half-inhibitory concentration (IC50) in assay [1] was under 10 nM; against FGFR1 it was 10 to 30 nM; at FGFR2 (pre-incubated for 4 hours) it was under 10 nM.
For the compound `CCn1cc(-c2cn3ncc(-c4cc(C(=O)NC)cc(C(F)F)c4F)c3nc2N[C@H]2CCOC2)cn1` [Example 48, (S)-3-(Difluoromethyl)-5-(6-(1-ethyl-1H-pyrazol-4-yl)-5-((tetrahydrofuran-3-yl)amino)pyrazolo[1,5-a]pyrimidin-3-yl)-4-fluoro-N-methylbenzamide], the concentration for half-maximal inhibition (IC50) is under 10 nM in assay [1], 10 to 30 nM against FGFR1 and under 10 nM against FGFR2 (pre-incubated for 4 hours).
For `CNC(=O)c1cc(-c2cnn3cc(-c4cnn(C5CCOC5)c4)c(N[C@H]4CCOC4)nc23)c(F)c(C(F)F)c1` (stereo partly drawn) [Example 49, 3-(Difluoromethyl)-4-fluoro-N-methyl-5-(6-(1-(tetrahydrofuran-3-yl)-1H-pyrazol-4-yl)-5-(((S)-tetrahydrofuran-3-yl)amino)pyrazolo[1,5-a]pyrimidin-3-y1)benzamide], the half-inhibitory concentration (IC50) in assay [1] was under 10 nM; at FGFR1, 10 to 30 nM; against FGFR2, under 10 nM.
In the case of `CNC(=O)c1cc(-c2cnn3cc(-c4cnn(CCOC)c4)c(N[C@H]4CCOC4)nc23)c(F)c(C(F)F)c1` [Example 50, (S)-3-(Difluoromethyl)-4-fluoro-5-(6-(1-(2-methoxyethyl)-1H-pyrazol-4-yl)-5-((tetrahydrofuran-3-yl)amino)pyrazolo[1,5-a]pyrimidin-3-yl)-N-methylbenzamide], the results for the 50% inhibitory concentration (IC50) (in assay [1]; at FGFR1; at FGFR2 (pre-incubated for 4 hours)) were under 10 nM, 10 to 30 nM and under 10 nM, respectively.
For the compound `CNC(=O)c1cc(F)c(F)c(-c2cnn3cc(-c4cnn(Cc5cccnc5)c4)c(N[C@H]4CCOC4)nc23)c1` [Example 52, (S)-3,4-Difluoro-N-methyl-5-(6-(1-(pyridin-3-ylmethyl)-1H-pyrazol-4-yl)-5-((tetrahydrofuran-3-yl)amino)pyrazolo[1,5-a]pyrimidin-3-yl)benzamide], the IC50 (in assay [1]; against FGFR1; against FGFR2 (pre-incubated for 4 hours)) was under 10 nM in each case.
Regarding `CNC(=O)c1cc(F)c(F)c(-c2cnn3cc(-c4cnn(CC5CCOCC5)c4)c(N[C@H]4CCOC4)nc23)c1` [Example 54, (S)-3,4-Difluoro-N-methyl-5-(6-(1-((tetrahydro-2H-pyran-4-yl)methyl)-1H-pyrazol-4-y1)-5-((tetrahydrofuran-3-yl)amino)pyrazolo[1,5-a]pyrimidin-3-yl)benzamide], the IC50 (in assay [1]; against FGFR1; against FGFR2) was under 10 nM in each case.
Consider `CNC(=O)c1cc(F)c(F)c(-c2cnn3cc(-c4ccn(C(C)C)c(=O)c4)c(N[C@H]4CCOC4)nc23)c1` [Example 56, (S)-3,4-Difluoro-5-(6-(1-isopropyl-2-oxo-1,2-dihydropyridin-4-y1)-5-((tetrahydrofuran-3-yl)amino)pyrazolo[1,5-a]pyrimidin-3-y1)-N-methylbenzamide], for which the IC50 is under 10 nM in assay [1], 10 to 30 nM against FGFR1 and under 10 nM against FGFR2.
For `CNC(=O)c1cc(F)c(F)c(-c2cnn3cc(-c4ccc(C(C)(C)O)nc4)c(N[C@H]4CCOC4)nc23)c1` [Example 57, (S)-3,4-Difluoro-5-(6-(6-(2-hydroxypropan-2-yl)pyridin-3-y1)-5-((tetrahydrofuran-3-yl)amino)pyrazolo[1,5-a]pyrimidin-3-y1)-N-methylbenzamide], the IC50 in assay [1] was under 10 nM; against FGFR1 it was 30 to 200 nM; against FGFR2, under 10 nM.
As to `[2H]C([2H])([2H])NC(=O)c1cc(C)c(F)c(-c2cnn3cc(-c4cnn(C5CCN(C(C)C)CC5)n4)c(N[C@H]4CCOC4)nc23)c1` [Example 67, (S)-4-Fluoro-3-(6-(2-(1-isopropylpiperidin-4-yl)-2H-1,2,3-triazol-4-yl)-5-((tetrahydrofuran-3-yl)amino)pyrazolo[1,5-a]pyrimidin-3-yl)-5-methyl-N-(methyl-d3)benzamide], the IC50 (in assay [1]; against FGFR1; at FGFR2 (pre-incubated for 4 hours)) was under 10 nM in each case.
On to `[2H]C([2H])([2H])NC(=O)c1cc(C)c(F)c(-c2cnn3cc(-c4cnc(C5CCN(C(C)C)CC5)o4)c(N[C@H]4CCOC4)nc23)c1` [Example 68, (S)-4-Fluoro-3-(6-(2-(1-isopropylpiperidin-4-yl)oxazol-5-yl)-5-((tetrahydrofuran-3-yl)amino)pyrazolo[1,5-a]pyrimidin-3-yl)-5-methyl-N-(methyl-d3)benzamide], for which the values for the half-inhibitory concentration (IC50) (in assay [1]; on FGFR1; against FGFR2 (pre-incubated for 4 hours)) were under 10 nM, 30 to 200 nM and under 10 nM, respectively.
In the case of `CNC(=O)c1cc(C)c(F)c(-c2cnn3cc(-c4cnc(C5(F)CCN(C)CC5)o4)c(N[C@H]4CCOC4)nc23)c1` [Example 69, (S)-4-Fluoro-3-(6-(2-(4-fluoro-1-methylpiperidin-4-yl)oxazol-5-yl)-5-((tetrahydrofuran-3-yl)amino)pyrazolo[1,5-a]pyrimidin-3-yl)-N,5-dimethylbenzamide], the results for the IC50 (in assay [1]; against FGFR1; against FGFR2 (pre-incubated for 4 hours)) were under 10 nM, 30 to 200 nM and under 10 nM, respectively.

The term IC50 denotes the midpoint of a concentration-inhibition curve.

Values taken from US11566028B2, “Bicyclic heterocycles as FGFR inhibitors” (Incyte Corporation, priority 2019, dated 2023).
